From US9315475B2 (MERCK SHARP & DOHME CORP., priority 2011, dated 2016)

test system: HIV-1 (H9IIIB strain); assay: Antiviral acute infection assay in cell culture (Spread); format: cell-based; details: Human immunodeficiency virus 1, T-lymphoid, HIV-1 H9IIIB infection of MT-4 human T-lymphoid cells in 10% FBS; mean of at least two independent experiments
Excerpt: Antiviral Assays in Cell Culture (“Spread”)
Acute Infection Assay (“Spread”) data were generated using HIV-1 (H9IIIB strain) infection of MT-4 human T-lymphoid cells in 10% FBS, and according to the methods disclosed by J. P. Vacca et al, “L-735,524: An orally bioavailable human immunodeficiency virus type 1 protease inhibitor,” Proc. Natl. Acad. Sci. USA, Vol. 91, pp. 4096-4100 (April 1994).

SMILES | EC50 [nM]
O=C(CC(c1ccc(F)cc1)c1ccc(F)cc1)Nc1cccc(F)c1CC[C@@H]1CN[C@H](CNC(=O)OCC(F)(F)F)CO1 [Example 87, 2,2,2-trifluoroethyl ({(3R,6R)-6-[2-(2-{[3,3-bis(4-fluoro-phenyl)propanoyl]amino}-6-fluorophenyl)ethyl]morpholin-3-yl}methyl) carbamate] | 2200
N[C@H](C(=O)Nc1cncc(F)c1CC[C@@H]1CN[C@H](COC(=O)NCC(F)(F)F)CO1)[C@@H](c1ccc(Cl)cc1)c1cccc(OC(F)(F)F)c1 [Example 98, (βS)-β-(4-Chlorophenyl)-N-(5-fluoro-4-{2-[(2R,5S)-5-({[(2,2,2-trifluoroethyl)carbamoyl]oxy}methyl)morpholin-2-yl]ethyl}pyridin-3-yl)-3-(trifluoromethoxy)-L-phenylalaninamide] | 28
COC(=O)N[C@H](C(=O)Nc1cccc(F)c1CC[C@@H]1CN[C@H](COC(=O)NCC(F)(F)F)CO1)[C@H](c1ccccc1)c1ccc(OC)c(Cl)c1 [Example 109, (βR)-3-Chloro-N-(3-fluoro-2-{2-[(2R,5S)-5-({[(2,2,2-trifluoroethyl)carbamoyl]oxy}methyl)morpholin-2-yl]ethyl}phenyl)-Nα-(methoxycarbonyl)-O-methyl-β-phenyl-L-tyrosinamide] | 340
N[C@H](C(=O)Nc1cccc(F)c1CC[C@@H]1CN[C@H](COC(=O)NCC(F)(F)F)CO1)[C@@H](c1ccc(F)cc1)C1CCOCC1 [Example 128, (βR)-4-Fluoro-N-(3-fluoro-2-{2-[(2R,5S)-5-({[(2,2,2-trifluoroethyl)carbamoyl]oxy}methyl)morpholin-2-yl]ethyl}phenyl)-β-(tetrahydro-2H-pyran-4-yl)-L-phenylalaninamide] | 91
COC(=O)N[C@H](C(=O)Nc1cccc(F)c1CC[C@@H]1CN[C@H](COC(=O)NCC(F)(F)F)CO1)[C@@H](c1ccc(Cl)cc1)c1ccncc1F [Example 134, (βS)-4-Chloro-β-(3-fluoropyridin-4-yl)-N-(3-fluoro-2-{2-[(2R,5S)-5-({[(2,2,2-trifluoroethyl)carbamoyl]oxy}methyl)morpholin-2-yl]ethyl}phenyl)-Nα-(methoxycarbonyl)-L-phenylalaninamide] | 28
O=C(CC(F)(F)F)NC[C@@H]1CO[C@H](CCc2c(F)cccc2NC(=O)CC(c2ccc(F)cc2)c2ccc(F)cc2)CN1 [Example 144, N-({(3R,6R)-6-[2-(2-{[3,3-Bis(4-fluorophenyl)propanoyl]amino}-6-fluorophenyl)ethyl]morpholin-3-yl}methyl)-3,3,3-trifluoropropanamide] | 170
COC(=O)N[C@H](C(=O)Nc1cccc(F)c1CC[C@@H]1CN[C@H](COC(=O)NCC(F)(F)F)CO1)[C@@H](c1ccc(Cl)cc1)c1ccc2c(c1)OCO2 [Example 110, (βS)-β-1,3-Benzodioxol-5-yl-4-chloro-N-(3-fluoro-2-{2-[(2R,5S)-5-({[(2,2,2-trifluoroethyl)carbamoyl]oxy}methyl)morpholin-2-yl]ethyl}phenyl)-Nα-(methoxycarbonyl)-L-phenylalaninamide] | 6.9
O=C(C[C@@H](c1ccc(F)cc1)c1ccccc1F)Nc1cncc(F)c1CC[C@@H]1CN[C@H](COC(=O)NCC(F)(F)F)CO1 [Example 158, {(3S,6R)-6-[2-(3-fluoro-5-{[(3S)-3-(2-fluorophenyl)-3-(4-fluorophenyl)propanoyl]amino}pyridin-4-yl)ethyl]morpholin-3-yl]methyl (2,2,2-trifluoroethyl)carbamate] | 34
O=C(C[C@@H](c1ccc(F)cc1)c1cncc(C(F)(F)F)c1)Nc1cccc(F)c1CC[C@@H]1CN[C@H](COC(=O)NCC(F)(F)F)CO1 [Example 139, [(3S,6R)-6-{2-[2-Fluoro-6-({(3S)-3-(4-fluorophenyl)-3-[5-(trifluoromethyl)pyridin-3-yl]propanoyl}amino)phenyl]ethyl}morpholin-3-yl]methyl (2,2,2-trifluoroethyl)carbamate] | 108
N[C@H](C(=O)Nc1cccc(F)c1CC[C@@H]1CN[C@H](COC(=O)N[C@H]2CCCOC2)CO1)C(c1ccc(F)cc1)c1ccc(F)cc1 [Example 122, 4-Fluoro-β-(4-fluorophenyl)-N-(3-fluoro-2-{2-[(2R,5S)-5-({[(3S)-tetrahydro-2H-pyran-3-ylcarbamoyl]oxy}methyl)morpholin-2-yl]ethyl}phenyl)-L-phenylalaninamide] | 44
NC(=O)OC[C@@H]1CO[C@H](CCc2c(F)cccc2NC(=O)CC(c2ccccc2)c2ccccc2)CN1 [Example 152, [(3S,6R)-6-(2-{2-[(3,3-diphenylpropanoyl)amino]-6-fluorophenyl}ethyl)morpholin-3-yl] methyl carbamate] | 88
NC(=O)OC[C@@H]1CO[C@H](CCc2c(F)cccc2NC(=O)[C@@H](N)[C@@H](c2ccc(F)cc2)c2cccc(F)c2)CN1 [Example 120, (βS)—N-[2-(2-{(2R,5S)-5-[(Carbamoyloxy)methyl]morpholin-2-yl}ethyl)-3-fluorophenyl]-4-fluoro-β-(3-fluorophenyl)-L-phenylalaninamide] | 20
N[C@H](C(=O)Nc1cccc(F)c1CC[C@@H]1CN[C@H](COC(=O)NCC(F)(F)F)CO1)[C@H](c1ccc(Cl)cc1)c1ccc2c(c1)OCO2 [Example 100, {(3S,6R)-6-[2-(2-{[(3R)-3-(1,3-Benzodioxol-5-yl)-3-(4-chlorophenyl)-L-alanyl]amino}-6-fluorophenyl)ethyl]morpholin-3-yl}methyl (2,2,2-trifluoroethyl)carbamate] | 39
CC1(C(=O)N[C@H](C(=O)Nc2cccc(F)c2CC[C@@H]2CN[C@H](COC(=O)NCC(F)(F)F)CO2)C(c2ccc(F)cc2)c2ccc(F)cc2)CC1 [Example 142, 4-Fluoro-β-(4-fluorophenyl)-N-(3-fluoro-2-{2-[(2R,5S)-5-({[(2,2,2-trifluoroethyl)carbamoyl]oxy}methyl)morpholin-2-yl]ethyl}phenyl)-Nα-[(1-methylcyclopropyl)carbonyl]-L-phenylalaninamide] | 150

Results, then the molecule that gave them:

EC50 [nM] | SMILES
33 | COC(=O)N[C@H](C(=O)Nc1cccc(F)c1CC[C@@H]1CN[C@H](COC(=O)NCC(F)(F)F)CO1)[C@@H](c1ccc(F)cc1)c1ccc(OC(F)(F)F)cc1 [Example 304, (βR)-β-(4-fluorophenyl)-N-(3-fluoro-2-{2-[(2R,5S)-5-({[(2,2,2-trifluoroethyl)carbamoyl]oxy}methyl)morpholin-2-yl]ethyl}phenyl)-Nα-(methoxy-carbonyl)-O-(trifluoromethyl)-L-tyrosinamide]
68 | O=C(CC(c1ccc(F)cc1)c1ccc(F)cc1)Nc1cncc(F)c1CC[C@@H]1CN[C@H](COC(=O)NC2c3ccccc3C[C@H]2O)CO1 (stereo partly drawn) [Example 185, {(3S,6R)-6-[2-(3-{[3,3-bis(4-fluoro-phenyl)propanoyl]amino}-5-fluoropyridin-4-yl)ethyl]morpholin-3-yl}methyl [(2R)-2-hydroxy-2,3-dihydro-1H-inden-1-yl]carbamate]
66 | CC(C)C(NC(=O)OC[C@@H]1CO[C@H](CCc2c(F)cncc2NC(=O)CC(c2ccc(F)cc2)c2ccc(F)cc2)CN1)C(C)C [Example 186, {(3S,6R)-6-[2-(3-{[3,3-bis(4-fluoro-phenyl)propanoyl]amino}-5-fluoropyridin-4-yl)ethyl]morpholin-3-yl}methyl [2-methyl-1-(1-methylethyl)propyl] carbamate]
85 | N#Cc1ncccc1[C@@H](CC(=O)Nc1cccc(F)c1CC[C@@H]1CN[C@H](COC(=O)NCC(F)(F)F)CO1)c1ccc(F)cc1 [Example 178, {(3S,6R)-6-[2-(2-{[(3S)-3-(2-cyanopyridin-3-yl)-3-(4-fluorophenyl)propanoyl]amino}-6-fluoro-phenyl)ethyl]morpholin-3-yl}methyl (2,2,2-trifluoroethyl)carbamate]
140 | N[C@H](C(=O)Nc1cccc(F)c1CC[C@@H]1CN[C@H](COC(=O)NCC(F)(F)F)CO1)[C@@H](c1ccc(F)cc1)c1ccc(OC(F)(F)F)cc1 [Example 219, (βR)-β-(4-fluorophenyl)-N-(3-fluoro-2-{2-[(2R,5S)-5-({[(2,2,2-trifluoroethyl)carbamoyl]oxy}methyl)morpholin-2-yl]ethyl}phenyl)-O-(trifluoromethyl)-L-tyrosinamide]
41 | CNC(=O)OC[C@@H]1CO[C@H](CCc2c(F)cncc2NC(=O)CC(c2ccc(F)cc2)c2ccc(F)cc2)CN1 [Example 177, {(3S,6R)-6-[2-(3-{[3,3-bis(4-fluoro-phenyl)propanoyl]amino}-5-fluoropyridin-4-yl)ethyl]morpholin-3-yl}methyl methylcarbamate]
17 | O=C(C[C@H](c1ccc(F)cc1)c1ccc(Cl)c(F)c1)Nc1cncc(F)c1CC[C@@H]1CN[C@H](COC(=O)NCC(F)(F)F)CO1 [Example 182, {(3S,6R)-6-[2-(3-{[(3R)-3-(4-chloro-3-fluorophenyl)-3-(4-fluoro-phenyl)propanoyl]amino}-5-fluoropyridin-4-yl)ethyl]morpholin-3-yl}methyl (2,2,2-trifluoroethyl)carbamate]
73 | O=C(CC(c1ccc(F)cc1)c1ccc(F)cc1)Nc1cncc(F)c1CC[C@@H]1CN[C@H](COC(=O)NCC2CCCO2)CO1 (stereo partly drawn) [Example 169, {(3S,6R)-6-[2-(3-{[3,3-bis(4-fluoro-phenyl)propanoyl]amino}-5-fluoropyridin-4-yl)ethyl]morpholin-3-yl}methyl (tetrahydrofuran-2-ylmethyl)carbamate]
68 | CC(NC(=O)OC[C@@H]1CO[C@H](CCc2c(F)cncc2NC(=O)CC(c2ccc(F)cc2)c2ccc(F)cc2)CN1)C1CCCO1 (stereo partly drawn) [Example 171, {(3S,6R)-6-[2-(3-{[3,3-bis(4-fluoro-phenyl)propanoyl]amino}-5-fluoropyridin-4-yl)ethyl]morpholin-3-yl}methyl [1-(tetrahydrofuran-2-yl)ethyl]carbamate]
